Test system: Plasmopara viticola
Test: Activity against peronospora of grapevines caused by Plasmopara viticola (protective spray on potted vines)
Type: in vivo
Conditions: individual active compound, potted vines cultivar Müller-Thurgau, untreated control 84% infection
Method: The active compounds, separately or jointly, were prepared as a stock solution comprising 0.25% by weight of active compound in acetone or DMSO. 1% by weight of the emulsifier Uniperol® EL (wetting agent having emulsifying and dispersant action based on ethoxylated alkylphenols) was added to this solution, and the mixture was diluted with water to the desired concentration.
Leaves of potted vines of the cultivar “Müller-Thurgau” were sprayed to runoff point with an aqueous suspension having the concentration of active compound stated below. The next day, the undersides of the leaves were inoculated with an aqueous zoospore suspension of Plasmopara viticola. The grapevines were then initially placed in a water-vapor-saturated chamber at 24° C. for 48 hours and then in a greenhouse at 20-30° C. for 5 days. After this period of time, the plants were again placed in a humid chamber for 16 hours to promote sporangiophore eruption. The extent of the development of the disease on the undersides of the leaves was then determined visually.
The visually determined percentages of infected leaf areas were converted into efficacies in % of the untreated control:
The efficacy (E) is calculated as follows using Abbot's formula: E=(1−α/β)−100 α corresponds to the fungicidal infection of the treated plants in % and β corresponds to the fungicidal infection of the untreated (control) plants in %
An efficacy of 0 means that the infection level of the treated plants corresponds to that of the untreated control plants; an efficacy of 100 means that the treated plants are not infected.
The expected efficacies of mixtures of active compounds were determined using Colby's formula (Colby, S. R. “Calculating synergistic and antagonistic responses of herbicide combinations”, Weeds, 15, 20-22, 1967) and compared with the observed efficacies.
Colby's formula: E=x+y−x·y/100 • E expected efficacy, expressed in % of the untreated control, when using the mixture of the active compounds A and B at the concentrations a and b • x efficacy, expressed in % of the untreated control, when using the active compound A at the concentration a • y efficacy, expressed in % of the untreated control, when using the active compound B at the concentration b

CC1CCN(c2c(-c3c(F)cccc3Cl)c(Cl)nc3ncnn23)CC1 [Comparison A]
Efficacy in % of the untreated control (0.25 ppm in the spray liquor): 0%
Efficacy in % of the untreated control (1 ppm in the spray liquor): 0%

C[C@H](Nc1c(-c2c(F)cc(F)cc2F)c(Cl)nc2ncnn12)C(F)(F)F [Comparison B]
Efficacy in % of the untreated control (0.25 ppm in the spray liquor): 5%
Efficacy in % of the untreated control (1 ppm in the spray liquor): 17%

CC1CCN(c2c(-c3c(F)cc(F)cc3F)c(Cl)nc3ncnn23)CC1 [I, 5-chloro-7-(4-methylpiperidin-1-yl)-6-(2,4,6-trifluorophenyl)-[1,2,4]triazolo[1,5-a]pyrimidine]
Efficacy in % of the untreated control (0.25 ppm in the spray liquor): 0%
Efficacy in % of the untreated control (1 ppm in the spray liquor): 17%

— patent US20060167019A1, “Fungicidal mixtures based on a trizolopyrimidine derivative” (priority 2003, published 2006)
